Twelve compounds from publication PMC7531004, “Discovery of gramicidin A analogues with altered activities by multidimensional screening of a one-bead-one-compound library” (Nature Communications, 2020) can be followed below.

Where a SMILES comes first, the peptide text is derived from it. [ ]: non-standard residue; d: D form. The star is where a group is joined. NHCH2CH2OH = OCCN*; For = O=C*

A short description of data set [1]: H+/Na+ transport assay of bead-derived peptides (one-point).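 Also: relative to parent gramicidin A activity set to 1.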 The conditions noted are these: bead-derived peptide solution, EYPC/EYPG LUVs. It counts as biochemical. On the set-up: key: relative activity; mean of two control wells = 1.00. The gist of the method: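 Pyranine (1.0 mM)-loaded LUVs containing egg yolk phosphatidylglycerol were prepared by film hydration, sonication and extrusion, then mixed with diluted bead-derived peptide in 96-well format and vortexed 30 min at room temperature. Fluorescence was normalized between untreated LUVs (0%) and Triton X-100 lysis (100%).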

Data set [2] relates to Streptococcus pyogenes SSI-9. Kind of data set: Antibacterial activity assay of bead-derived peptides (three concentrations). It counts as cell-based. Also noted: key: +++: inhibition by the 640-fold diluted peptide solution; ++: inhibition by the 160-fold diluted solution; +: inhibition by the 40-fold diluted solution; -: no inhibition. Particulars: S. pyogenes, bead-derived peptide solution, three concentrations. The gist of the method:
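Undiluted, 4-fold and 16-fold DMSO-diluted peptide stocks; S. pyogenes SSI-9, 2 × 10^5 CFU, cation-adjusted MHB (50 mg/L Ca2+, 25 mg/L Mg2+) + 5% laked horse blood; 37 °C, 18 h; readout = cell pellet visible or not.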

Data set [3] has as its system P388 mouse leukemia cells. The conditions noted are these: 92 h. The gist of the method: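 P388 cells at 1 × 10^4 cells/mL (final) were exposed to library peptides (stocks diluted 250-fold in RPMI1640/10% FBS) for 92 h at 37 °C, 5% CO2. Viable cells were counted by WST-1/1-methoxy PMS (4 h), absorbance 415 nm, and expressed as cell viability (%).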

As to `CNC(=O)C[C@@H](NC(=O)[C@@H](NC(=O)[C@H](NC(=O)[C@H](C)NC(=O)[C@H](NC(=O)[C@H](C)NC(=O)CNC(=O)[C@@H](NC=O)C(C)C)C(C)C)C(C)C)C(C)C)C(=O)N[C@@H](Cc1c[nH]c2ccccc12)C(=O)N[C@H](CC(C)C)C(=O)N[C@@H](Cc1c[nH]c2ccccc12)C(=O)N[C@H](CC(C)C)C(=O)N[C@@H](Cc1c[nH]c2ccccc12)C(=O)N[C@@H](C(=O)N[C@@H](Cc1c[nH]c2ccccc12)C(=O)NCCO)C(C)C` [compound 11796] (For-VGA[dV]A[dV]V[dD](NHMe)W[dL]W[dL]W[dV]W-NHCH2CH2OH), the “H+/Na+ transport activity normalized against the value of 1 (1.00)” value (from here on “H+/Na+ transport activity normalized”) in data set [1] was 1.33. Moreover, the antibacterial activity entry in data set [2] is “-”. The compound also returned a cell viability/% in data set [3] of 100.0%.
For `CC(C)C[C@@H](NC(=O)[C@H](C)NC(=O)CNC(=O)[C@@H](NC=O)C(C)C)C(=O)N[C@@H](C)C(=O)N[C@H](CC(C)C)C(=O)N[C@H](C(=O)N[C@@H](C(=O)N[C@@H](Cc1c[nH]c2ccccc12)C(=O)N[C@@H](C(=O)N[C@@H](Cc1c[nH]c2ccccc12)C(=O)N[C@@H](C(=O)N[C@@H](Cc1c[nH]c2ccccc12)C(=O)N[C@H](CC(C)C)C(=O)N[C@@H](Cc1c[nH]c2ccccc12)C(=O)NCCO)C(C)C)C(C)C)C(C)C)C(C)C` [compound 12040] (For-VGA[dL]A[dL]V[dV]W[dV]W[dV]W[dL]W-NHCH2CH2OH) the same measures were 1.07, “+” and 100.0%.
The matching figures for `CC(C)C[C@@H](NC(=O)[C@H](C)NC(=O)CNC(=O)[C@@H](NC=O)C(C)C)C(=O)N[C@@H](C)C(=O)N[C@H](CC(C)C)C(=O)N[C@H](C(=O)N[C@@H](C(=O)N[C@@H](Cc1c[nH]c2ccccc12)C(=O)N[C@@H](C(=O)N[C@@H](Cc1c[nH]c2ccccc12)C(=O)N[C@@H](C(=O)N[C@@H](Cc1c[nH]c2ccccc12)C(=O)N[C@H](CC(C)C)C(=O)N[C@@H](Cc1c[nH]c2ccccc12)C(=O)NCCO)C(C)C)[C@H](C)O)C(C)C)C(C)C` [compound 12081] (For-VGA[dL]A[dL]V[dV]W[dT]W[dV]W[dL]W-NHCH2CH2OH): 1.01, “-” and 100.0%.
The matching figures for `CC(C)C[C@@H](NC(=O)[C@H](C)NC(=O)CNC(=O)[C@@H](NC=O)C(C)C)C(=O)N[C@@H](C)C(=O)N[C@@H](C(=O)N[C@H](C(=O)N[C@@H](C(=O)N[C@@H](Cc1c[nH]c2ccccc12)C(=O)N[C@@H](C(=O)N[C@@H](Cc1c[nH]c2ccccc12)C(=O)N[C@@H](C(=O)N[C@@H](Cc1c[nH]c2ccccc12)C(=O)N[C@@H](C(=O)N[C@@H](Cc1c[nH]c2ccccc12)C(=O)NCCO)C(C)C)C(C)C)C(C)C)C(C)C)C(C)C)C(C)C` [compound 12092] (For-VGA[dL]A[dV]V[dV]W[dV]W[dV]W[dV]W-NHCH2CH2OH): 1.14, “+” and 100.0%.
Take `CC(C)C[C@@H](NC(=O)[C@H](C)NC(=O)[C@H](NC(=O)[C@H](C)NC(=O)CNC(=O)[C@@H](NC=O)C(C)C)C(C)C)C(=O)N[C@H](C(=O)N[C@@H](C(=O)N[C@@H](Cc1c[nH]c2ccccc12)C(=O)N[C@@H](C(=O)N[C@@H](Cc1c[nH]c2ccccc12)C(=O)N[C@H](CC(C)C)C(=O)N[C@@H](Cc1c[nH]c2ccccc12)C(=O)N[C@H](CC(C)C)C(=O)N[C@@H](Cc1c[nH]c2ccccc12)C(=O)NCCO)C(C)C)C(C)C)C(C)C` [compound 12099] (For-VGA[dV]A[dL]V[dV]W[dV]W[dL]W[dL]W-NHCH2CH2OH): the “H+/Na+ transport activity normalized” value in data set [1] is reported as 1.05. For the same compound, the antibacterial activity result in data set [2] was “+”. Also, in data set [3], the cell viability/% was 85.4%.
For `CC(C)C[C@@H](NC(=O)[C@H](C)NC(=O)CNC(=O)[C@@H](NC=O)C(C)C)C(=O)N[C@@H](C)C(=O)N[C@@H](C(=O)N[C@H](C(=O)N[C@@H](C(=O)N[C@@H](Cc1c[nH]c2ccccc12)C(=O)N[C@H](CC(C)C)C(=O)N[C@@H](Cc1c[nH]c2ccccc12)C(=O)N[C@@H](C(=O)N[C@@H](Cc1c[nH]c2ccccc12)C(=O)N[C@H](CC(C)C)C(=O)N[C@@H](Cc1c[nH]c2ccccc12)C(=O)NCCO)C(C)C)[C@H](C)O)C(C)C)C(C)C` [compound 12185] (For-VGA[dL]A[dV]V[dT]W[dL]W[dV]W[dL]W-NHCH2CH2OH) the same measures were 1.02, “+” and 98.1%.
Consider `CC(C)C[C@@H](NC(=O)[C@H](C)NC(=O)[C@H](NC(=O)[C@H](C)NC(=O)CNC(=O)[C@@H](NC=O)C(C)C)C(C)C)C(=O)N[C@H](C(=O)N[C@@H](C(=O)N[C@@H](Cc1c[nH]c2ccccc12)C(=O)N[C@@H](C(=O)N[C@@H](Cc1c[nH]c2ccccc12)C(=O)N[C@@H](C(=O)N[C@@H](Cc1c[nH]c2ccccc12)C(=O)N[C@@H](C(=O)N[C@@H](Cc1c[nH]c2ccccc12)C(=O)NCCO)C(C)C)C(C)C)C(C)C)[C@H](C)O)C(C)C` [compound 12283] (For-VGA[dV]A[dL]V[dT]W[dV]W[dV]W[dV]W-NHCH2CH2OH), for which the “H+/Na+ transport activity normalized” value in data set [1] turned out to be 1.08. In addition, in data set [2], the antibacterial activity entry is on record as “-”. The compound further yielded a cell viability/% in data set [3] of 100.0%.
Consider `CC(C)C[C@@H](NC(=O)[C@H](C)NC(=O)[C@H](NC(=O)[C@H](C)NC(=O)CNC(=O)[C@@H](NC=O)C(C)C)C(C)C)C(=O)N[C@H](C(=O)N[C@@H](C(=O)N[C@@H](Cc1c[nH]c2ccccc12)C(=O)N[C@@H](C(=O)N[C@@H](Cc1c[nH]c2ccccc12)C(=O)N[C@H](CC(C)C)C(=O)N[C@@H](Cc1c[nH]c2ccccc12)C(=O)N[C@@H](C(=O)N[C@@H](Cc1c[nH]c2ccccc12)C(=O)NCCO)[C@H](C)O)C(C)C)C(C)C)C(C)C` [compound 12285] (For-VGA[dV]A[dL]V[dV]W[dV]W[dL]W[dT]W-NHCH2CH2OH), for which the “H+/Na+ transport activity normalized” value in data set [1] amounted to 1.01. In data set [2], the antibacterial activity result is “-”. This compound displayed a cell viability/% in data set [3] of 100.0%.
For `CC(C)C[C@@H](NC(=O)[C@H](Cc1c[nH]c2ccccc12)NC(=O)[C@@H](CC(C)C)NC(=O)[C@H](Cc1c[nH]c2ccccc12)NC(=O)[C@@H](CC(C)C)NC(=O)[C@H](Cc1c[nH]c2ccccc12)NC(=O)[C@H](NC(=O)[C@@H](NC(=O)[C@H](NC(=O)[C@H](C)NC(=O)[C@H](NC(=O)[C@H](C)NC(=O)CNC(=O)[C@@H](NC=O)C(C)C)C(C)C)C(C)C)C(C)C)[C@H](C)O)C(=O)N[C@@H](Cc1c[nH]c2ccccc12)C(=O)NCCO` [compound 12287] (For-VGA[dV]A[dV]V[dT]W[dL]W[dL]W[dL]W-NHCH2CH2OH) the same measures were 1.16, “-” and 100.0%.
The matching figures for `CC(C)C[C@@H](NC(=O)[C@H](Cc1c[nH]c2ccccc12)NC(=O)[C@H](NC(=O)[C@@H](NC(=O)[C@H](NC(=O)[C@H](C)NC(=O)[C@H](NC(=O)[C@H](C)NC(=O)CNC(=O)[C@@H](NC=O)C(C)C)[C@H](C)O)C(C)C)C(C)C)C(C)C)C(=O)N[C@@H](Cc1c[nH]c2ccccc12)C(=O)N[C@@H](C(=O)N[C@@H](Cc1c[nH]c2ccccc12)C(=O)N[C@@H](C(=O)N[C@@H](Cc1c[nH]c2ccccc12)C(=O)NCCO)C(C)C)C(C)C` [compound 12298] (For-VGA[dT]A[dV]V[dV]W[dL]W[dV]W[dV]W-NHCH2CH2OH): 1.04, “-” and 100.0%.
The matching figures for `CNC(=O)C[C@@H](NC(=O)[C@@H](NC(=O)[C@@H](CC(C)C)NC(=O)[C@H](C)NC(=O)[C@@H](CC(C)C)NC(=O)[C@H](C)NC(=O)CNC(=O)[C@@H](NC=O)C(C)C)C(C)C)C(=O)N[C@@H](Cc1c[nH]c2ccccc12)C(=O)N[C@@H](C(=O)N[C@@H](Cc1c[nH]c2ccccc12)C(=O)N[C@@H](C(=O)N[C@@H](Cc1c[nH]c2ccccc12)C(=O)N[C@H](CC(C)C)C(=O)N[C@@H](Cc1c[nH]c2ccccc12)C(=O)NCCO)C(C)C)C(C)C` [compound 12307] (For-VGA[dL]A[dL]V[dD](NHMe)W[dV]W[dV]W[dL]W-NHCH2CH2OH): 1.32, “-” and 100.0%.
In the case of `CNC(=O)C[C@@H](NC(=O)[C@@H](NC(=O)[C@H](NC(=O)[C@H](C)NC(=O)[C@H](NC(=O)[C@H](C)NC(=O)CNC(=O)[C@@H](NC=O)C(C)C)C(C)C)C(C)C)C(C)C)C(=O)N[C@@H](Cc1c[nH]c2ccccc12)C(=O)N[C@H](CC(C)C)C(=O)N[C@@H](Cc1c[nH]c2ccccc12)C(=O)N[C@H](CC(C)C)C(=O)N[C@@H](Cc1c[nH]c2ccccc12)C(=O)N[C@@H](C(=O)N[C@@H](Cc1c[nH]c2ccccc12)C(=O)NCCO)C(C)C` [compound 12373] (For-VGA[dV]A[dV]V[dD](NHMe)W[dL]W[dL]W[dV]W-NHCH2CH2OH), the “H+/Na+ transport activity normalized” value in data set [1] worked out at 1.04. Besides, the antibacterial activity entry in data set [2] is given as “-”. In data set [3], this compound came in with a cell viability/% of 100.0%.
